In assay [1] the target is T1, human recombinant histamine H1 receptor (Homo sapiens, UniProt P35367).
T1 construct: expressed in transfected cells; host or cells: CHO cells
Put plainly: Histamine H1 radioligand binding ([3H]Pyrilamine). The conditions noted are these: percent inhibition of specific binding; screened at 1 μM; read-out: Inhibition of ligand binding, Hist. H1. A digest of the protocol:
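CHO-expressed receptor in modified Tris-HCl buffer (50 mM, pH 7.4; 2 mM MgCl2, 100 mM NaCl, 250 mM sucrose); bound ligand measured after filtration and washing.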

The target of assay [2] is T2, human recombinant adrenergic α1D receptor (Homo sapiens, UniProt P25100).
T2 construct: expressed in transfected cells; host or cells: HEK-293 cells
T2 sequence (P25100 1-572): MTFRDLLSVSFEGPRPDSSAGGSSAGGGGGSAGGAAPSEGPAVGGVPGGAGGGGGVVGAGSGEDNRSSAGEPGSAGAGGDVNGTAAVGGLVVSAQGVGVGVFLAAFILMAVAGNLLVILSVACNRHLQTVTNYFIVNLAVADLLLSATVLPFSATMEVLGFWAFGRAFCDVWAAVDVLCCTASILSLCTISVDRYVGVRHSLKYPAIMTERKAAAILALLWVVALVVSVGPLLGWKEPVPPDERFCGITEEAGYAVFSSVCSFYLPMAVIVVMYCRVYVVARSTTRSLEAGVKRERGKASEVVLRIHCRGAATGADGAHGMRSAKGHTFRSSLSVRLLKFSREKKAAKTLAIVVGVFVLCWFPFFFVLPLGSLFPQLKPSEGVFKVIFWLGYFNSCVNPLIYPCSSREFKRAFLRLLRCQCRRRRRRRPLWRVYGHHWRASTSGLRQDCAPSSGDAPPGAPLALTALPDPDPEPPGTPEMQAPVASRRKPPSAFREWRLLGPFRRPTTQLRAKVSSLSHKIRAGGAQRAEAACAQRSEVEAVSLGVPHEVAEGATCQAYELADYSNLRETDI
Put plainly: Adrenergic α1D radioligand binding ([3H]Prozosin). The arrangement: Inhibition of ligand binding, Adren. alpha1D: concentration or dose not given beside the values. The conditions noted are these: percent inhibition of specific binding. How it is done: Compounds of invention were incubated with 0.6 nM [^3H]Prozosin for 60 minutes at 25° C. Non-specific binding was estimated in the presence of 10 μM phentolamine. Receptor proteins were filtered and washed, the filters were then counted to determine [^3H]Prozosin specifically bound. […] Biochemical assay results are presented as the percent inhibition of specific binding in Table 6.

For assay [3], the target named is T3, human recombinant adrenergic α2B receptor (Homo sapiens, UniProt P18089).
T3 construct: expressed in transfected cells; host or cells: CHO-K1 cells
T3 sequence (P18089 1-450): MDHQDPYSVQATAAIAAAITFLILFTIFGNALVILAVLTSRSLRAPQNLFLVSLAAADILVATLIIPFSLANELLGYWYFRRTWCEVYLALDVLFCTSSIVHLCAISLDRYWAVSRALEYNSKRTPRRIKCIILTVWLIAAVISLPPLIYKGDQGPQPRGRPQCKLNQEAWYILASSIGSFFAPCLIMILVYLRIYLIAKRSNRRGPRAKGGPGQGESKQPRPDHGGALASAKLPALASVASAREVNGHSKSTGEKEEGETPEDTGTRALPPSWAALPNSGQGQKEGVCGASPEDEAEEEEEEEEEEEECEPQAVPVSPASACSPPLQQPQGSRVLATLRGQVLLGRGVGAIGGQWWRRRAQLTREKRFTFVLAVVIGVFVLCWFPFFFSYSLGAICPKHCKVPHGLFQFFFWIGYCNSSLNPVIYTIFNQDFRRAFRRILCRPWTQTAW
Put plainly: Adrenergic α2B radioligand binding ([3H]Rauwolscine). The arrangement: Inhibition of ligand binding, Adren. alpha2B: concentration or dose not given beside the values. The conditions noted are these: percent inhibition of specific binding. An outline of the steps: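 Incubation ran 60 minutes at 25 °C in modified Tris-HCl buffer (50 mM, pH 7.4, 12.5 mM MgCl2, 1 mM EDTA, 0.2% BSA) using CHO-K1-expressed human receptor.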

Assay [4] addresses T4, human recombinant serotonin (5-Hydroxytryptamine) 5-HT2A receptor (Homo sapiens, UniProt P28223).
T4 construct: expressed in transfected cells; host or cells: CHO-K1 cells
Put plainly: Serotonin 5-HT2A radioligand binding ([3H]Ketanserin). The conditions noted are these: percent inhibition of specific binding. How it is done:
Compounds of the invention were incubated with 0.5 nM [^3H]Ketanserin for 60 minutes at 25° C. Non-specific binding was estimated in the presence of 1 μM Mianserin. Receptor proteins were filtered and washed, the filters were then counted to determine [^3H]Ketanserin specifically bound. […] Biochemical assay results are presented as the percent inhibition of specific binding in Table 6.

Assay [5] deals with T5, human recombinant histamine H2 receptor (Homo sapiens, UniProt P25021).
T5 construct: expressed in transfected cells; host or cells: CHO-K1 cells
T5 sequence (P25021 whole entry): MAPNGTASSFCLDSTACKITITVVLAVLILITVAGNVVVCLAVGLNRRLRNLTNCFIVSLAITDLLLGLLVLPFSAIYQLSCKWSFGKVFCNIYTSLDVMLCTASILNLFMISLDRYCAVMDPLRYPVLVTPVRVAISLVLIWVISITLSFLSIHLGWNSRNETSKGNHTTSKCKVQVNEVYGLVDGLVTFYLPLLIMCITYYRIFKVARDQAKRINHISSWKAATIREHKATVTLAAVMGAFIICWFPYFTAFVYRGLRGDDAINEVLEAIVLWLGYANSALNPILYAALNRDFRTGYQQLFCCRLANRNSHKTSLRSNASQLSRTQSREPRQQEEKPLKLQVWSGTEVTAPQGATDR
Put plainly: Histamine H2 radioligand binding ([125I]Aminopotentidine). The conditions noted are these: percent inhibition of specific binding; screened at 1 μM; read-out: Inhibition of ligand binding, Hist. H2. An outline of the steps:
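This radioligand binding assay measured displacement of [125I]Aminopotentidine from recombinant human histamine H2 receptors. Compounds were dissolved in 1% DMSO vehicle. Specific binding was calculated by subtracting non-specific binding, defined using 3 μM Tiotidine, and activity was reported as percentage inhibition of that specific binding.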

In assay [6] the target is T6, human recombinant dopamine D2L receptor (Homo sapiens, UniProt P14416).
T6 construct: expressed in transfected cells; host or cells: CHO cells
T6 sequence (P14416 whole entry): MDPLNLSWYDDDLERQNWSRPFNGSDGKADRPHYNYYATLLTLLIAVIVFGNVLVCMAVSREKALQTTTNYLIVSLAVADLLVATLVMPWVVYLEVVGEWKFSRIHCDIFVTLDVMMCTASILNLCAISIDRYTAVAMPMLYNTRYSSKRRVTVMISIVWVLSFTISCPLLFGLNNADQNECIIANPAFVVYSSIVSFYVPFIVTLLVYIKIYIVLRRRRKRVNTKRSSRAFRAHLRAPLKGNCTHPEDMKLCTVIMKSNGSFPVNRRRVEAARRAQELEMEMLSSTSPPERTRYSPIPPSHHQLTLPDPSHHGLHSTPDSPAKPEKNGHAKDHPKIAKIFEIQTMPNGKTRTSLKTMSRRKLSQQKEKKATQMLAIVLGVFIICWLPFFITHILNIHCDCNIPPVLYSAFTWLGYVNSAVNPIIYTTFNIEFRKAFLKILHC
Put plainly: Dopamine D2L radioligand binding ([3H]Spiperone). The conditions noted are these: percent inhibition of specific binding. The protocol:
Non-specific binding was estimated in the presence of 10 μM Haloperidol. Receptor proteins were filtered and washed, the filters were then counted to determine [^3H]Spiperone specifically bound. […] Biochemical assay results are presented as the percent inhibition of specific binding in Table 6.

This is an account of results in patent US9096591B2, “Tetracyclic compounds” (Medivation Technologies, Inc., priority 2007, dated 2015).

T1 sequence (P35367 whole entry): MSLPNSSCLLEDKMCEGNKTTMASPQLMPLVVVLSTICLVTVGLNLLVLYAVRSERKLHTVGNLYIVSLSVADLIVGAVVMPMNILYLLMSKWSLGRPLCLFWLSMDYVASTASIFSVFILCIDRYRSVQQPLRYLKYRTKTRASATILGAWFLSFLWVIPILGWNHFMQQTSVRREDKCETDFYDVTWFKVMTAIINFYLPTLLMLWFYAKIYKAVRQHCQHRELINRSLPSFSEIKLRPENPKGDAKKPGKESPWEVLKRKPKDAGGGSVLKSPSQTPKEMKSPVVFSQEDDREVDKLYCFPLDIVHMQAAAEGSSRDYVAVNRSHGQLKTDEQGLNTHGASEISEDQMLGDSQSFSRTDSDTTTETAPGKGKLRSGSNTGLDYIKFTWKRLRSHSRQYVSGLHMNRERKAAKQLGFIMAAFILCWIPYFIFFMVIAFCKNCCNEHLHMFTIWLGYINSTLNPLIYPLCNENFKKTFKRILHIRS
T4 sequence (P28223 whole entry): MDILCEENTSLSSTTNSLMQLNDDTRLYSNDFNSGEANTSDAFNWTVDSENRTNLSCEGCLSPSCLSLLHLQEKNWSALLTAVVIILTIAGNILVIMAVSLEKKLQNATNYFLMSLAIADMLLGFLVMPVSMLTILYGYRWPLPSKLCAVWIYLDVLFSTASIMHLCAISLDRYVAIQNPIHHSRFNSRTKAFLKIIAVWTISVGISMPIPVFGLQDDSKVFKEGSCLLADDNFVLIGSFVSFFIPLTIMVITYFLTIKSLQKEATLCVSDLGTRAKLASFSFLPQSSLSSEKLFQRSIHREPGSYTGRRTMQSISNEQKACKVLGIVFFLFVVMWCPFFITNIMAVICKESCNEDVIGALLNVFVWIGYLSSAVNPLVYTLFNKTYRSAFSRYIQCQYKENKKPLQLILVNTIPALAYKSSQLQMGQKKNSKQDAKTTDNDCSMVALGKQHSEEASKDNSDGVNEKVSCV

`Cc1ccc2c(c1)c1c(n2CC(=O)N2Cc3ccccc3C2)CCN(C)C1` [Compound 397, 2-(1,2,3,4-tetrahydro-2,8-dimethylpyrido[4,3-b]indol-5-yl)-1-(isoindolin-2-yl)ethanone]: the values for the inhibition at 1 µM in assay [1] and in assay [5] were 77% and 32%, respectively. Moreover, the “Inhibition of ligand binding, Adren. alpha1D” value (from here on “Inhibition … Adren. alpha1D”) in assay [2] is on record as 19%. For the same compound, in assay [3], the “Inhibition of ligand binding, Adren. alpha2B” value (from here on “Inhibition … Adren. alpha2B”) was found to be 40%. Moreover, in assay [4], the “Inhibition of ligand binding, Ser. 5-HT2A” value (from here on “Inhibition … Ser. 5-HT2A”) is listed as 50%. The “Inhibition of ligand binding, Dop. D2L” value in assay [6] is reported as 5%.

Regarding `Cc1ccc(CCn2c3c(c4cc(CO)ccc42)CN(C)CC3)cn1` [Compound 263], the values for the inhibition at 1 µM in assay [1] and in assay [5] were 95% and 15%, respectively. Besides, the “Inhibition … Adren. alpha1D” value in assay [2] was found to be 39%. In addition, the “Inhibition … Adren. alpha2B” value in assay [3] worked out at 105%. Besides, the “Inhibition … Ser. 5-HT2A” value in assay [4] came to 24%. Further, the “Inhibition of ligand binding, Dop. D2L” value in assay [6] is given as −4%.

Turning to `CCc1ccc(CCn2c3c(c4cc(C)ccc42)CN(C)CC3)cn1` [Compound 359, 5-[2-(6-Ethyl-pyridin-3-yl)-ethyl]-2,8-dimethyl-2,3,4,5-tetrahydro-1H-pyrido[4,3-b]indole], the inhibition (usually the drop in the measured response relative to a control, in per cent) at 1 µM in assay [1] was 99%; in assay [5], 94%. The “Inhibition … Adren. alpha1D” value in assay [2] was 95%. Further, the “Inhibition … Adren. alpha2B” value in assay [3] worked out at 90%. Further, the “Inhibition … Ser. 5-HT2A” value in assay [4] was 96%. The “Inhibition of ligand binding, Dop. D2L” value in assay [6] came to 51%.

Regarding `Cc1ncc(CCn2c3c(c4cc(C(C)C)ccc42)CN(C)CC3)cn1` [Compound 370, 8-Isopropyl-2-methyl-5-[2-(2-methyl-pyrimidin-5-yl)-ethyl]-2,3,4,5-tetrahydro-1H-pyrido[4,3-b]indole], the inhibition at 1 µM in assay [1] is 85%; in assay [5], 18%. Besides, the “Inhibition … Adren. alpha1D” value in assay [2] is reported as 71%. Further, the “Inhibition … Adren. alpha2B” value in assay [3] came out at 87%. Also, in assay [4], the “Inhibition … Ser. 5-HT2A” value stood at 15%. Moreover, the “Inhibition of ligand binding, Dop. D2L” value in assay [6] is 10%.

`Cc1ccc(CCn2c3c(c4cc(Cl)c(F)cc42)CN(C)CC3)cn1` [Compound 404, 8-Chloro-7-fluoro-2-methyl-5-[2-(6-methyl-pyridin-3-yl)-ethyl]-2,3,4,5-tetrahydro-1H-pyrido[4,3-b]indole]: the inhibition at 1 µM stood at 102% in assay [1] and 88% in assay [5]. Moreover, the “Inhibition … Adren. alpha1D” value in assay [2] was 81%. In assay [3], the “Inhibition … Adren. alpha2B” value is on record as 95%. For the same compound, the “Inhibition … Ser. 5-HT2A” value in assay [4] is given as 88%. The “Inhibition of ligand binding, Dop. D2L” value in assay [6] worked out at 35%.

Turning to `CCc1ccc(CCn2c3c(c4cc(Cl)ccc42)CN(C)CC3)cn1` [Compound 371, 8-Chloro-5-[2-(6-ethyl-pyridin-3-yl)-ethyl]-2-methyl-2,3,4,5-tetrahydro-1H-pyrido[4,3-b]indole], the inhibition at 1 µM worked out at 99% in assay [1] and 74% in assay [5]. Besides, the “Inhibition … Adren. alpha1D” value in assay [2] is given as 88%. The “Inhibition … Adren. alpha2B” value in assay [3] was 98%. Moreover, the “Inhibition … Ser. 5-HT2A” value in assay [4] was 93%. Further, the “Inhibition of ligand binding, Dop. D2L” value in assay [6] came to 40%.

Turning to `CCc1ccc2c(c1)c1c(n2CCc2ccc(C)nc2)CCN(C)C1` [Compound 357, 8-Ethyl-2-methyl-5-[2-(6-methyl-pyridin-3-yl)-ethyl]-2,3,4,5-tetrahydro-1H-pyrido[4,3-b]indole], the inhibition at 1 µM worked out at 101% in assay [1] and 68% in assay [5]. In addition, the “Inhibition … Adren. alpha1D” value in assay [2] is 89%. In addition, in assay [3], the “Inhibition … Adren. alpha2B” value is listed as 106%. For the same compound, in assay [4], the “Inhibition … Ser. 5-HT2A” value stood at 69%. The “Inhibition of ligand binding, Dop. D2L” value in assay [6] amounted to 47%.

As for `CN1CCc2c(c3cc(Cl)c(F)cc3n2CCc2ccc(C(F)(F)F)nc2)C1` [Compound 343], the inhibition at 1 µM in assay [1] stood at 98%; in assay [5], 29%. Moreover, the “Inhibition … Adren. alpha1D” value in assay [2] was 61%. Further, in assay [3], the “Inhibition … Adren. alpha2B” value is recorded as 117%. Further, in assay [4], the “Inhibition … Ser. 5-HT2A” value is 89%. Also, the “Inhibition of ligand binding, Dop. D2L” value in assay [6] is −7%.

In the case of `CC(C)c1ccc(CCn2c3c(c4cc(Cl)ccc42)CN(C)CC3)cn1` [Compound 372, 8-Chloro-5-[2-(6-isopropyl-pyridin-3-yl)-ethyl]-2-methyl-2,3,4,5-tetrahydro-1H-pyrido[4,3-b]indole], the values for the inhibition at 1 µM in assay [1] and in assay [5] were 101% and 82%, respectively. For the same compound, in assay [2], the “Inhibition … Adren. alpha1D” value was determined as 94%. For the same compound, in assay [3], the “Inhibition … Adren. alpha2B” value came to 110%. The “Inhibition … Ser. 5-HT2A” value in assay [4] was determined as 96%. Besides, in assay [6], the “Inhibition of ligand binding, Dop. D2L” value is given as 44%.

`CCc1ccc2c(c1)c1c(n2CCc2ccc(C(F)(F)F)nc2)CCN(C)C1` [Compound 358, 8-Ethyl-2-methyl-5-[2-(6-trifluoromethyl-pyridin-3-yl)-ethyl]-2,3,4,5-tetrahydro-1H-pyrido[4,3-b]indole]: the results for the inhibition at 1 µM in assay [1] and in assay [5] were 94% and 47%, respectively. In assay [2], the “Inhibition … Adren. alpha1D” value came out at 95%. The “Inhibition … Adren. alpha2B” value in assay [3] came out at 109%. The “Inhibition … Ser. 5-HT2A” value in assay [4] is on record as 95%. For the same compound, the “Inhibition of ligand binding, Dop. D2L” value in assay [6] came out at 38%.

For the compound `CN1CCc2c(c3cc(Cl)ccc3n2CCc2cncnc2)C1` [Compound 424, 8-Chloro-2-methyl-5-(2-pyrimidin-5-yl-ethyl)-2,3,4,5-tetrahydro-1H-pyrido[4,3-b]indole], the inhibition at 1 µM in assay [1] was found to be 104%; in assay [5], 19%. For the same compound, the “Inhibition … Adren. alpha1D” value in assay [2] stood at 57%. Moreover, the “Inhibition … Adren. alpha2B” value in assay [3] was 94%. Besides, the “Inhibition … Ser. 5-HT2A” value in assay [4] is 52%. Besides, the “Inhibition of ligand binding, Dop. D2L” value in assay [6] amounted to 17%.

With `CN1CCc2c(c3cc(Cl)ccc3n2CCc2cccnc2)C1` [Compound 55], the values for the inhibition at 1 µM in assay [1] and in assay [5] were 101% and 62%, respectively. Also, the “Inhibition … Adren. alpha1D” value in assay [2] was 84%. Further, in assay [3], the “Inhibition … Adren. alpha2B” value came out at 90%. In addition, the “Inhibition … Ser. 5-HT2A” value in assay [4] came to 86%. Further, the “Inhibition of ligand binding, Dop. D2L” value in assay [6] amounted to 29%.

Turning to `CN1CCc2c(c3cc(Cl)ccc3n2CCc2cncc(C(F)(F)F)c2)C1` [Compound 426, 8-chloro-5-(2-(5-(trifluoromethyl)pyridin-3-yl)ethyl)-2,3,4,5-tetrahydro-2-methyl-1H-pyrido[4,3-b]indole], the values for the inhibition at 1 µM in assay [1] and in assay [5] were 99% and 66%, respectively. The “Inhibition … Adren. alpha1D” value in assay [2] was 69%. The “Inhibition … Adren. alpha2B” value in assay [3] is on record as 98%. In assay [4], the “Inhibition … Ser. 5-HT2A” value worked out at 85%. In assay [6], the “Inhibition of ligand binding, Dop. D2L” value is −7%.
